{
  "source": "patent US10905148B2",
  "about": "“Systems and methods for monitoring of blood lactate and targeting of blood lactate via nutritional support” (Run Them Sweet LLC, priority 2012, dated 2021)",
  "key": {"[1]": {"tested_on": "lipases and esterases in human plasma", "settings": "cited from earlier work"}, "[2]": {"tested_on": "lactate dehydrogenase in red blood cells and the lung parenchyma", "settings": "due to lactate dehydrogenase in red blood cells and lung parenchyma; cited from earlier work"}, "[3]": {"settings": "aqueous conditions; cited from earlier work"}, "[4]": {"test": "Osmolality of infusion solutions", "assay_type": "physicochemical", "protocol": "In its simplest form, the MCC cocktail would be sodium-L-(+)-Lactate prepared by titrating L-(+)-Lactic acid with NaOH. The following describe such procedures: (24, 52, 55-57). Briefly, the MCC infusion cocktail is prepared by mixing concentrated (30-88%) L-(+)-lactic acid solution (e.g., Sigma-Aldrich or PCCA) in 2 N NaOH to pH 4.8. In the example provided, the starting point is a 30% stock lactic acid solution: 300 g 30% lactic acid stock solution is titrated with 133.3 g 2N NaOH and diluted to 1,000 ml with water. This will produce a 11.2% weight-by-volume (“w/v”) MCC cocktail (sodium-L-(+)-Lactate) with an osmolality approximating 2,000 mOsm/l. Depending on the stock lactic acid solution used, a NaOH titrating solution>2 N may be necessary to neutralize stock lactic acid without exceeding the intended volume. Regardless of the specifics of acid titration, a 1.72% Na^+-lactate aqueous solution is isosmotic (308 mOsm/l); consequently, as initially mixed the above described MCC is far too concentrated to be given in a peripheral vein and will need to be diluted to less than 1,000 mOsm/l (a 5.6% Na^+-lactate solution). In a peripheral arm vein and a 5.0-5.6% Na^+-lactate MCC should be given with normal (0.9%, 308 mOsm/l) saline or another isosmotic solution such as […] (dextrose) in water, commonly called D5W (see more below).\nIn another version of the simplest form, the MCC cocktail would be sodium-L-(+)-Lactate prepared from the dry, powdered salt in deionized water to the concentration intended [e.g., for an isosmotic solution: 154 mM lactate (plus 154 mM Na^+) total osmolarity 308 mOsm/l], and infused in the above-stated amounts to raise arterial [lactate] to the intended levels.\nState of the art is to provide parenteral nutritive support to patients using 5% dextrose (D5W, glucose in water, vide supra). Because glucose (dextrose) has a molecular weight of 180, osmolality of D5W is 278 mM, which in the low range of normal plasma osmolality ([…]). Even though the glucose concentration in D5W is 50 times greater than homeostatic in plasma, in terms of its isosmotic effect with glucose alone being the only solute, D5W is isosmotic. Mixing equal isosmotic solutions such as equal volumes of 154 mM Sanguisal-L and D5W glucose will produce an osmolality in the high end of the normal range. As noted earlier, this slightly elevated osmolality because of sodium content will draw fluid from tissues into the vascular compartment, thus mitigating swelling due to injury (15)."}, "[5]": {"settings": "cited from earlier work"}, "[6]": {"settings": "infusions of 2N Na+-Pyruvate into swine; cited from earlier work"}, "[7]": {"settings": "lactate clamp procedure, exogenous lactate"}},
  "data": [
    {"molecule": "CC(O)C(=O)OCC(COC(=O)C(C)O)OC(=O)C(C)O", "note": "(stereo not drawn) [Glycerol tri-lactate, glycerol tri-lactate]", "values": [
      {"measurement": "dissociation of individual units in human plasma", "setting": "[1]; lipases and esterases in human plasma", "result": "rapidly dissociate"}
    ]},
    {"molecule": "CC(=O)C(=O)O", "note": "[pyruvate]", "values": [
      {"measurement": "conversion in circulation/blood", "setting": "[2]", "result": "rapidly converted to lactate"},
      {"measurement": "stability in aqueous solutions", "setting": "[3]", "result": "spontaneous degradation"}
    ]},
    {"molecule": "C[C@H](O)C(=O)[O-].[Na+]", "note": "[sodium-L-(+)-Lactate]", "values": [
      {"measurement": "total osmolarity", "setting": "[4]; 154 mM lactate plus 154 mM Na+, isosmotic solution", "result": 308, "unit": "mOsm/l"},
      {"measurement": "osmolality", "setting": "[4]; 1.72% aqueous solution, isosmotic", "result": 308, "unit": "mOsm/l"},
      {"measurement": "osmolality", "setting": "[4]; 5.6% solution", "result": "1,000 mOsm/l"},
      {"measurement": "osmolality", "setting": "[4]; 11.2% w/v MCC cocktail", "result": "~2,000 mOsm/l"},
      {"measurement": "higher blood lactate levels seen/used without ill effects", "setting": "[5]; sodium lactate MCC infusion", "result": 6, "unit": "mM"}
    ]},
    {"molecule": "Arginyl lactate", "values": [
      {"measurement": "dissociation of individual units at neutral pH", "setting": "[1]; neutral pH as exists in human plasma", "result": "dissociate spontaneously"}
    ]},
    {"molecule": "CC(=O)C(=O)[O-].[Na+]", "note": "[Na^+-Pyruvate, sodium-L-(+)-Pyruvate]", "values": [
      {"measurement": "arterial [lactate]", "setting": "[6]", "result": 8, "unit": "mM"},
      {"measurement": "arterial [pyruvate]", "setting": "[6]", "result": 3.5, "unit": "mM"}
    ]},
    {"molecule": "CC(O)C(=O)O", "note": "(stereo not drawn) [lactate, 2-hydroxy-propionate]", "values": [
      {"measurement": "safety of route and amount of vascular lactate administration", "setting": "[5]; approximately 3 mg/kg/min, vascular", "result": "safe"},
      {"measurement": "blood pH", "setting": "[5]; [7]", "result": "raises pH"},
      {"measurement": "effects on plasma electrolytes", "setting": "[5]; [7]", "result": "without major effects"},
      {"measurement": "side effects", "setting": "[5]; oral or intravenous administration", "result": "no apparent side effects except mild alkalosis"}
    ]}
  ]
}
